Measured values as given in patent US4143010A, “High retention wood preservative composition” (Canadian Patents and Development Limited, priority 1978, dated 1979).
In brackets after ≈: the same amount, converted by molar mass. Read-outs that look alike come from different tables or passages of the source.

How the values were obtained:
[1] = Accelerated sublimation test of deposits on glass under vacuum; assay type: physicochemical; details: room temperature
From the text: In order to determine the influence of chemical components in the preservative composition on loss of preservative (PCP) under accelerated sublimation conditions, three solutions have been prepared, separately, in carbon tetrachloride as a solvent (in percent w/v).
I. solution: PCP (3.5%) as a preservative.
Ii. solution; PCP (3.5%) and stearic acid (3.5%) as the hydrophobic agent.
III. Solution: PCP (3.5%) stearic acid (3.5%) and polystyrene (0.7%) as the organic polymer.
The same volume of each solution (0.07 ccm/sq.in.) has been poured on the surface of glass template and the solent evaporated at room temperature leaving solid deposits of each sample. Then these deposits of the 3 different preservative compositions (I--II--III), in which the amount of preservative (PCP) was the same, were exposed to vacuum at room temperature in order to accelerate the loss of components. The loss of weight of each single deposit was checked periodically and is expressed in FIG. 1 in percent of original weight of preservative (PCP).

[2] = Hydrophobicity (contact angle of water drops) of treated red pine; assay type: physicochemical; details: contact angle 180°
Description: The same solutions of preservative compositions (I--II--III), as in Example I have been used for impregnation of red pine wood samples in order to determine the effect on hydrophobicity of wood. After the samples of wood have been fully saturated by solutions I--II--III, the solvent was then evaporated at room temperature during the next 24hours, leaving solid deposits of the components in the wood. Measurements of contact angles of the surface of water drops on pertinent wood samples were made to show the relative hydrophobicity. The sooner the water soaks in the surface of wood (contact angle 180°) the lower the hydrophobicity of wood and vice versa.

[3] = Immobilization of PCP in spruce microsections, vacuum exposure and microscopy; assay type: physicochemical
From the text: From both samples, microsections were cut from the wood tissues, approximately 0.35 -0.37 inch from the surface in the radial direction, i.e. within the area, where the PCP was positively detected by previous staining. Numerous microscopic sections (transverse) were made from both samples (A and B) separately. From each of both groups of microsections, typical sections were again microscopically stained with a Silver-Copper complex (which is the basis of the "Penta-Check") to detect again PCP in the microsections. Other typical unstained microsections were mounted into microscopic slides and without any staining examined microscopically. On the viewed microsections of treated wood typical spots were selected where the cell obviously contained significant deposits of PCP, and photographed, at the same magnification. Photographed microsections from sample A and B were then carefully removed from the slides, gently dried off by a touch of absorbent paper at the corner of the microsections, and transferred into a vacuum desiccator by a micromanipulator. The desiccator was then closed and very slowly evacuated. When the vacuum reached 29.5 inch Hg, the desiccator was sealed and the microsections left for 7 days ([…]). Then the desiccator, still at 27 inch vacuum, was slowly filled with air, opened and the microsections transferred onto glass slides and mounted for microscopic examination. This exposure under the same vacuum conditions (29.5 -27 inch Hg) for 7 days gave accelerated sublimation of PCP. The accelerated vacuum test is considered as an accurate simulation of the effect of ordinary atmosphere for an extended time. The microscopic slides were carefully examined, the same spot of each microsection was found (as photographed before vacuum exposure) and rephotographed (at the same magnification) for comparison.
Two pairs of photomicrographs are shown as FIGS. 1 (a ) and 1 (b ), and as FIGS. 2 (a ) and 2 (b ), being typical of observations of as many as 50 microsections. […]

Leaching resistance test = assay type: physicochemical; details: for increase of leaching resistance due to additives: with additives versus without
Description: Solution I 5% w/v D-18 in chloroform
Solution II 5% w/v D-20 in chloroform
1.0% w/v polystyrene in chloroform
Solution IV same as III but with 5% w/v D-20.
uptake of preservative was calculated from the weight increase. Chloroform solvent was removed from the samples by air drying followed by drying in the oven at 105° C. for 4 hours. Each sample was leached with a standard volume of distilled water at room temperature. Every two hours the water surrounding each sample was removed for spectrophotometric measurement and was replaced by another standard volume of fresh distilled water. Total leaching time was 140 hours. The concentration of D18 and D20 in the leach water was determined by comparing specific absorbance in UV light with the absorbance of known concentrations of D18 and D20 in water. The leached amount of D18 and D20 was recalculated as a percent of the original amount impregnated into the samples before leaching.

Lenzites trabea [4] = experiment: Effectiveness against decay fungi on spruce sections; assay type: cell-based, Lenzites trabea (S644); details: for Average Percentage of Wood Area Colonized: 19 days at 27° C
Description: (§1) The fungicidal activity of these compositions was determined in an accelerated experiment with the wood-rotting basidiomycetes Lenzites trabea (S644), Coniophora puteana (A302) and Poria monticola (A384) as test fungi. Small cross-the-grain sections of spruce wood (Picea glauca, a refractory species) were cut 40 microns thick on a microtome. All treatment specimens (0.5 × 0.5 inch) were cut from the same block of wood and were therefore homogeneous in nature. Wood specimens were treated to different retention levels with the active ingredients D18 or D20 with or without the additives. Two of each treatment series were placed on sterilized glass microscopic cover slips (22 mm^2) which were then deposited upon cultures of actively growing decay fungi in Petri dishes. Cultures were grown on a 2% malt extract, 2% agar medium. Two untreated specimens were included in each culture dish as controls. Treatment series were 0.1, 0.5 and 1.75 pcf. Incubation was for 19 days at 27° C. Each test was done in duplicate. Evaluation of the treated samples was made using a stereoscopic microscope (× 10.5 magnification). The percentage of the surface area of each specimen colonized by the test fungus was determined. The smaller the colonized surface area on each wood specimen, the more efficient the preservative composition used for specimen treatment.

Coniophora puteana = experiment: as above; assay type: cell-based, Coniophora puteana (A302); details: 19 days at 27° C
Description: as §1

Poria monticola [5] = experiment: as above; assay type: cell-based, Poria monticola (A384); details: for Average Percentage of Wood Area Colonized: 19 days at 27° C
Description: as §1

Poria monticola [6] = experiment: Soil-block culture decay test after leaching; assay type: cell-based; details: leached samples
From the text: 5% (w/cv) D18 in chloroform and
5% (w/v) D18 with 1.4% wax and 1% polystyrene in chloroform solution.
After solvent removal by slow air drying and a short period of oven drying both series of samples were exposed to leaching in water under the same conditions (time of exposure, temperature and volume of water for leaching). […] After leaching the samples were further tested for toxicity against a wood-decaying fungus in a modified standard method of testing wood preservatives by laboratory soil-block cultures. Five untreated controls and 5 samples from each preservative series were put into soil jars on wooden feeder blocks inoculated with a standard test fungus Poria monticola. […] Jars were located in an incubation room maintained at 80° F. and 70% R.H. and were opened one by one in five consecutive time intervals, after 25 -- 32 -- 39 -- 46 and 65 days incubation. Wood specimens taken from the jars were oven dried and the weight loss due to decay calculated.

[7] = Test of solubility of oxathiins and additives in various solvents; assay type: physicochemical
From the text: Table 5 is a solubility chart summarizing a list of organic solvents solubilizing oxathiins and the two additives which can be applied in the same solution.

Lenzites trabea [8] = details: wood preservative threshold; cited from earlier work
[9] = retention 0.1 pcf, * = mycelia extended over the top but did not colonize all substrate underneath
[10] = water, read-out: Solubility in water

Structure (SMILES) | Cumulative Percent Preservative Leached from Wood (Leaching resistance test; 10 hours of exposure) [%] | Cumulative Percent Preservative Leached from Wood (Leaching resistance test; 30 hours of exposure) [%] | Cumulative Percent Preservative Leached from Wood (Leaching resistance test; 70 hours of exposure) [%] | Cumulative Percent Preservative Leached from Wood (Leaching resistance test; 140 hours of exposure) [%] | increase of leaching resistance due to additives (Leaching resistance test) | Average Percentage of Wood Area Colonized (Lenzites trabea [4]; [9]) [Percentage] | Average Percentage of Wood Area Colonized (Lenzites trabea [4]; retention 0.5 pcf) [Percentage] | Average Percentage of Wood Area Colonized (Lenzites trabea [4]; retention 1.75 pcf) [Percentage] | Average Percentage of Wood Area Colonized (Coniophora puteana; retention 0.1 pcf) [Percentage] | Average Percentage of Wood Area Colonized (Coniophora puteana; retention 0.5 pcf) [Percentage] | Average Percentage of Wood Area Colonized (Coniophora puteana; retention 1.75 pcf) [Percentage] | Average Percentage of Wood Area Colonized (Poria monticola [5]; [9]) [Percentage] | Average Percentage of Wood Area Colonized (Poria monticola [5]; retention 0.5 pcf) [Percentage] | Average Percentage of Wood Area Colonized (Poria monticola [5]; retention 1.75 pcf) [Percentage] | solubility [7, 10] [µg/mL] | also measured
Oc1c(Cl)c(Cl)c(Cl)c(Cl)c1Cl [PCP, pentachlorophenol] |  |  |  |  |  |  |  |  |  |  |  |  |  |  |  | loss of PCP ([1]; deposit on glass under vacuum, % of original weight of PCP (FIG. 1)): 99%; time for water to soak into wood surface [2]: ≤ 40 s; PCP retention after vacuum exposure ([3]; 164 hours, 29.5-27 inch Hg): had disappeared after vacuum exposure; water repellency of microsections ([3]; microscopic sections): not highly water repellent; distribution of PCP in the cells ([3]; microscopic staining): deposited on the cell walls in individual spots
CC1=C(C(=O)Nc2ccccc2)SCCO1 [Solution D18, 2,3-dihydro-5-carboxanilido-6-methyl-1,4-oxathiin] | 14 | 27 | 43 | 56 | 51-57% | 25 | 0 | 0 | 30 | 5 | 5 | 40 | 0 | 0 | 170 (≈ 722 µM) | Cumulative Percent Weight Loss Due to Decay (Poria monticola [6]; 25 days of incubation): 2%; Cumulative Percent Weight Loss Due to Decay (Poria monticola [6]; 32 days of incubation): 4%; Cumulative Percent Weight Loss Due to Decay (Poria monticola [6]; 39 days of incubation): 6%; Cumulative Percent Weight Loss Due to Decay (Poria monticola [6]; 46 days of incubation): 10%; Cumulative Percent Weight Loss Due to Decay (Poria monticola [6]; 65 days of incubation): 21%; known threshold level (Lenzites trabea [8]): 1.1 mg/mL
CC1=C(C(=O)Nc2ccccc2)S(=O)(=O)CCO1 [Solution D20] | 10 | 38 | 54 | 61 | 17-27% | 50 | 0 | 0 | 40 | 10 | 10 | 50 | 15 | 10 | 1000 (≈ 3740 µM) | effect of additives on effectiveness (Lenzites trabea [4]): increase in the effectiveness of D20 due to the additives; effect of additives on effectiveness (Poria monticola [5]): increase in the effectiveness of D20 due to the additives; solubility ([7]; Carbon tetrachloride): - (+); solubility ([7]; Perchloroethylene): - (+)
CCCCCCCCCCCCCCCCCC(=O)O [stearic acid] |  |  |  |  |  |  |  |  |  |  |  |  |  |  |  | reduction of PCP sublimation compared to the control ([1]; vacuum, control = PCP alone): 34%
